# In patent US12162872B2, “Cycloalkylurea derivative” (Sumitomo Pharma Co., Ltd., priority 2019, dated 2024):
# Target: T1, Human orexin receptor type 2 (Homo sapiens, UniProt O43614)
# T1 construct: expressed in transfected cells; host or cells: CHO cells (transient expression)
# T1 sequence (O43614 1-444): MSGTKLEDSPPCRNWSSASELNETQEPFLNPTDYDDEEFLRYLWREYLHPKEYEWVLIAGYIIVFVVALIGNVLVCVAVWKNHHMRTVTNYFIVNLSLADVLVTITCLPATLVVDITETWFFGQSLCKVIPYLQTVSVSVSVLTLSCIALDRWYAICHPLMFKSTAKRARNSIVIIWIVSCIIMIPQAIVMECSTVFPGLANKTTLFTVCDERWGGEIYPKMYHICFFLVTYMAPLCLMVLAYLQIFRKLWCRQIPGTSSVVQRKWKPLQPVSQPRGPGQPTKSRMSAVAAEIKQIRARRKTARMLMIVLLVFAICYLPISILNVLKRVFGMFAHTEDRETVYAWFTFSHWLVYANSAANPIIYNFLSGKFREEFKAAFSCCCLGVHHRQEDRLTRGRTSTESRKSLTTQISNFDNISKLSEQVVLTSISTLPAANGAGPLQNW
# Assay: Test 2: Evaluation of agonist activity for orexin receptor type 2 (aequorin luminescence, intracellular calcium mobilization in CHO cells)
# Type: cell-based
# Conditions: relative percentage of luminescence for the luminescence (100%) of Orexin A (100 pM); CHO cells transiently expressing human orexin receptor type 2 and apoaequorin; Orexin A Lot. 671009
# Procedure, shortened: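 CHO cells transiently co-expressing the receptor and apoaequorin, incubated 16–22 h, were loaded 2 h at room temperature with 1 μM coelenterazine hcp (final). Compounds in Hanks/20 mM HEPES/0.1% BSA (0.1% DMSO final) were added and the calcium luminescence was read and expressed as % of Orexin A (100 pM).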
row,Compound,agonist activity (%)
1,"CN(CC1CC1)[C@H]1CCCN([C@H]2CCCC(F)(F)[C@@H]2NC(=O)N2CCC(C)(c3noc([C@@H]4C[C@@H]4F)n3)CC2)CC1 [Example 144, N-[(1R,6S)-6-{(4S)-4-[(cyclopropylmethyl)(methyl)amino]azepan-1-yl}-2,2-difluorocyclohexyl]-4-{5-[(1S,2S)-2-fluorocyclopropyl]-1,2,4-oxadiazol-3-yl}-4-methylpiperidine-1-carboxamide]",399
2,"CN(CC1CC1)[C@@H]1CCCN([C@H]2CCCC(F)(F)[C@@H]2NC(=O)N2CCC(C)(c3noc([C@@H]4C[C@@H]4F)n3)CC2)CC1 [Example 145, N-[(1R,6S)-6-{(4R)-4-[(cyclopropylmethyl)(methyl)amino]azepan-1-yl}-2,2-difluorocyclohexyl]-4-{5-[(1S,2S)-2-fluorocyclopropyl]-1,2,4-oxadiazol-3-yl}-4-methylpiperidine-1-carboxamide]",403
3,"CC(C)N1CCN([C@H]2CCCC(F)(F)[C@@H]2N(C)C(=O)N2CCC(C)(c3noc([C@@H]4C[C@@H]4F)n3)CC2)CC1 [Example 146, N-{(1R,6S)-2,2-difluoro-6-[4-(propan-2-yl)piperazin-1-yl]cyclohexyl}-4-{5-[(1S,2S)-2-fluorocyclopropyl]-1,2,4-oxadiazol-3-yl}-N,4-dimethylpiperidine-1-carboxamide]",23
4,"CC(C)N1CCN([C@H]2CCCC(C)(C)[C@@H]2NC(=O)N2CCC(C)(c3noc(C4CC4)n3)CC2)CC1 [Example 147, 4-(5-cyclopropyl-1,2,4-oxadiazol-3-yl)-N-{(1S,6S)-2,2-dimethyl-6-[4-(propan-2-yl)piperazin-1-yl]cyclohexyl}-4-methylpiperidine-1-carboxamide]",373
5,"CC(C)N(C)C1CN([C@H]2CCCC(F)(F)[C@@H]2NC(=O)N2CCC(C)(c3noc([C@@H]4C[C@@H]4F)n3)CC2)C1 [Example 148, N-[(1R,6S)-2,2-difluoro-6-{3-[methyl(propan-2-yl)amino]azetidin-1-yl}cyclohexyl]-4-{5-[(1S,2S)-2-fluorocyclopropyl]-1,2,4-oxadiazol-3-yl}-4-methylpiperidine-1-carboxamide]",391
6,"CN(CC1CC1)C1CN([C@H]2CCCC(F)(F)[C@@H]2NC(=O)N2CCC(C)(c3noc([C@@H]4C[C@@H]4F)n3)CC2)C1 [Example 149, N-[(1R,6S)-6-{3-[(cyclopropylmethyl)(methyl)amino]azetidin-1-yl}-2,2-difluorocyclohexyl]-4-{5-[(1S,2S)-2-fluorocyclopropyl]-1,2,4-oxadiazol-3-yl}-4-methylpiperidine-1-carboxamide]",419
7,"CC1(CN2CC[C@H](O[C@H]3CCCC(F)(F)[C@@H]3NC(=O)N3CCC(C)(c4noc([C@@H]5C[C@@H]5F)n4)CC3)C2)COC1 [Example 150, N-[(1R,6S)-2,2-difluoro-6-({(3S)-1-[(3-methyloxetan-3-yl)methyl]pyrrolidin-3-yl}oxy)cyclohexyl]-4-{5-[(1S,2S)-2-fluorocyclopropyl]-1,2,4-oxadiazol-3-yl}-4-methylpiperidine-1-carboxamide]",437
8,"CC(C)N1CCCN([C@H]2CCCC(F)(F)[C@@H]2NC(=O)N2CCC(C)(c3noc([C@@H]4C[C@@H]4F)n3)CC2)CC1 [Example 152, N-{(1R,6S)-2,2-difluoro-6-[4-(propan-2-yl)-1,4-diazepan-1-yl]cyclohexyl}-4-{5-[(1S,2S)-2-fluorocyclopropyl]-1,2,4-oxadiazol-3-yl}-4-methylpiperidine-1-carboxamide]",470
9,"CC(C)N1CCN(C(=O)O[C@H]2CCCC(F)(F)[C@@H]2NC(=O)N2CCC(C)(c3noc([C@@H]4C[C@@H]4F)n3)CC2)CC1 [Example 153, (1S,2R)-3,3-difluoro-2-[(4-{5-[(1S,2S)-2-fluorocyclopropyl]-1,2,4-oxadiazol-3-yl}-4-methylpiperidine-1-carbonyl)amino]cyclohexyl 4-(propan-2-yl)piperazine-1-carboxylate]",350
10,"CC(C)N1CCC(S[C@H]2CCCC(F)(F)[C@@H]2NC(=O)N2CCC(C)(c3noc([C@@H]4C[C@@H]4F)n3)CC2)CC1 [Example 154, N-[(1S,6S)-2,2-difluoro-6-{[1-(propan-2-yl)piperidin-4-yl]sulfanyl}cyclohexyl]-4-{5-[(1S,2S)-2-fluorocyclopropyl]-1,2,4-oxadiazol-3-yl}-4-methylpiperidine-1-carboxamide]",493
11,"CC(C)N1CCC(S(=O)(=O)[C@H]2CCCC(F)(F)[C@@H]2NC(=O)N2CCC(C)(c3noc([C@@H]4C[C@@H]4F)n3)CC2)CC1 [Example 155, N-{(1S,6S)-2,2-difluoro-6-[1-(propan-2-yl)piperidine-4-sulfonyl]cyclohexyl}-4-{5-[(1S,2S)-2-fluorocyclopropyl]-1,2,4-oxadiazol-3-yl}-4-methylpiperidine-1-carboxamide]",167
12,CC(C)N1CCN([C@H]2CCC[C@H](F)[C@@H]2NC(=O)N2CCC(C)(c3noc([C@@H]4C[C@@H]4F)n3)CC2)CC1 [Example 156],323
13,"CC(C)CN(C)C1CCN([C@H]2CCCC(F)(F)[C@@H]2NC(=O)N2CCC(C)(c3noc([C@@H]4C[C@@H]4F)n3)CC2)CC1 [Example 157, N-[(1R,6S)-2,2-difluoro-6-{4-[methyl(2-methylpropyl)amino]piperidin-1-yl}cyclohexyl]-4-{5-[(1S,2S)-2-fluorocyclopropyl]-1,2,4-oxadiazol-3-yl}-4-methylpiperidine-1-carboxamide]",392
14,"CN(CC1CC1)C1CCN([C@H]2CCCC(F)(F)[C@@H]2NC(=O)N2CCC(C)(c3noc([C@@H]4C[C@@H]4F)n3)CC2)CC1 [Example 158, N-[(1R,6S)-6-{4-[(cyclopropylmethyl)(methyl)amino]piperidin-1-yl}-2,2-difluorocyclohexyl]-4-{5-[(1S,2S)-2-fluorocyclopropyl]-1,2,4-oxadiazol-3-yl}-4-methylpiperidine-1-carboxamide]",389
15,"CN(C1CCC1)C1CCN([C@H]2CCCC(F)(F)[C@@H]2NC(=O)N2CCC(C)(c3noc([C@@H]4C[C@@H]4F)n3)CC2)CC1 [Example 159, N-[(1R,6S)-6-{4-[cyclobutyl(methyl)amino]piperidin-1-yl}-2,2-difluorocyclohexyl]-4-{5-[(1S,2S)-2-fluorocyclopropyl]-1,2,4-oxadiazol-3-yl}-4-methylpiperidine-1-carboxamide]",392
16,"CCN(C)C1CCN([C@H]2CCCC(F)(F)[C@@H]2NC(=O)N2CCC(C)(c3noc([C@@H]4C[C@@H]4F)n3)CC2)CC1 [Example 160, N-[(1R,6S)-6-{4-[ethyl(methyl)amino]piperidin-1-yl}-2,2-difluorocyclohexyl]-4-{5-[(1S,2S)-2-fluorocyclopropyl]-1,2,4-oxadiazol-3-yl}-4-methylpiperidine-1-carboxamide]",410
17,"CC(C)N1CC[C@H](N[C@H]2CCCC(F)(F)[C@@H]2NC(=O)N2CCC(C)(c3noc([C@@H]4C[C@@H]4F)n3)CC2)C1 [Example 161, N-[(1R,6S)-2,2-Difluoro-6-{[(3S)-1-(propan-2-yl)pyrrolidin-3-yl]amino}cyclohexyl]-4-{5-[(1S,2S)-2-fluorocyclopropyl]-1,2,4-oxadiazol-3-yl}-4-methylpiperidine-1-carboxamide]",374
